Experimental data published in ChEMBL document CHEMBL1201862, “PubChem BioAssay data set” (2004).
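1) Cells in 96-well plates. 2) Compound, 48 h, 5 concentrations. 3) Linear interpolation between surrounding doses. 4) Unreached endpoint = highest concentration. GI50: concentration for 50% inhibition of growth.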 Calls of active or inactive are those of the source. No stated cut-off is given here; in the data, active = GI50 up to about 1.1 µM and inactive = higher.

Experiments:
Assay in all cases: growth of human tumour cells (NCI), 48 h
A549 = test system: A549
CAKI-1 = test system: CAKI-1
COLO 205 = test system: COLO 205
DU-145 = test system: DU-145
HCT-116 = test system: HCT-116
HT-29 = test system: HT-29
Hs-578T = test system: Hs-578T
MCF7 = test system: MCF7
MDA-MB-231 = test system: MDA-MB-231
MDA-MB-435 = test system: MDA-MB-435
Malme-3M = test system: Malme-3M
NCI-H522 = test system: NCI-H522
OVCAR-3 = test system: OVCAR-3
RXF 393 = test system: RXF 393
SF-268 = test system: SF-268
SF-295 = test system: SF-295
TK-10 = test system: TK-10
HCC 2998 = test system: HCC 2998
SK-MEL-28 = test system: SK-MEL-28
SR = test system: SR

SMILES | GI50 (A549) | GI50 (CAKI-1) | GI50 (COLO 205) | GI50 (DU-145) | GI50 (HCT-116) | GI50 (HT-29) | GI50 (Hs-578T) | GI50 (MCF7) | GI50 (MDA-MB-231) | GI50 (MDA-MB-435) | GI50 (Malme-3M) | GI50 (NCI-H522) | GI50 (OVCAR-3) | GI50 (RXF 393) | GI50 (SF-268) | GI50 (SF-295) | GI50 (TK-10) | GI50 (HCC 2998) | GI50 (SK-MEL-28) | GI50 (SR)
N#Cc1cc(-c2nc3c(F)cccc3s2)ccc1N | > 100 µM (inactive) | 46 µM (inactive) | 71.4 µM (inactive) | > 100 µM (inactive) | > 100 µM (inactive) | > 100 µM (inactive) | > 100 µM (inactive) | 0.133 µM (active) | > 100 µM (inactive) | 45.5 µM (inactive) | 88.9 µM (inactive) | > 100 µM (inactive) | 96.4 µM (inactive) | > 100 µM (inactive) | > 100 µM (inactive) | > 100 µM (inactive) | 4.26 µM (inactive) | – | – | –
Oc1ccc(Cl)cc1CN1CCN(Cc2cc(Cl)ccc2O)C1 | 1.75 µM (inactive) | 1.88 µM (inactive) | 1.45 µM (inactive) | 1.92 µM (inactive) | 0.234 µM (active) | 1.87 µM (inactive) | 3.82 µM (inactive) | 10.5 µM (inactive) | 0.403 µM (active) | 1.33 µM (inactive) | 2.17 µM (inactive) | 3.31 µM (inactive) | 0.367 µM (active) | 0.895 µM (active) | 1.09 µM (active) | 0.682 µM (active) | 1.55 µM (inactive) | 1.03 µM (active) | 1.65 µM (inactive) | –
CCN(CC)c1ccc2cc(C(=O)Nc3ccccn3)c(=N)oc2c1 | > 100 µM (inactive) | > 100 µM (inactive) | > 100 µM (inactive) | > 100 µM (inactive) | 55.5 µM (inactive) | 32.2 µM (inactive) | 32.1 µM (inactive) | – | 47.5 µM (inactive) | > 100 µM (inactive) | 60.3 µM (inactive) | – | > 100 µM (inactive) | 47.9 µM (inactive) | 60.8 µM (inactive) | – | – | > 100 µM (inactive) | > 100 µM (inactive) | > 100 µM (inactive)
C(=N\c1ccc(-c2nc3ccccc3[nH]2)cc1)/c1ccco1 | > 100 µM (inactive) | > 100 µM (inactive) | 43.9 µM (inactive) | > 100 µM (inactive) | 57.3 µM (inactive) | > 100 µM (inactive) | > 100 µM (inactive) | 21.1 µM (inactive) | – | 48.4 µM (inactive) | > 100 µM (inactive) | 53.1 µM (inactive) | 91.4 µM (inactive) | 73.8 µM (inactive) | > 100 µM (inactive) | – | > 100 µM (inactive) | 76.4 µM (inactive) | > 100 µM (inactive) | 37.2 µM (inactive)
COc1ccc2oc(C(=O)N3CC(CCl)c4ccc([N+](=O)[O-])cc43)cc2c1 (configuration not stated) | – | 15.4 µM (inactive) | 74.6 µM (inactive) | 25.4 µM (inactive) | 89.1 µM (inactive) | – | 9.12 µM (inactive) | – | 14.9 µM (inactive) | 0.468 µM (active) | – | – | – | 13.4 µM (inactive) | 13.3 µM (inactive) | 13 µM (inactive) | 33.2 µM (inactive) | > 100 µM (inactive) | > 100 µM (inactive) | 0.402 µM (active)
O=C(/C=C/c1ccccc1)/C=N/N1C(=S)N(c2ccccc2)C(=N\c2ccccc2)/C1=N/c1ccccc1 | > 100 µM (inactive) | > 100 µM (inactive) | > 100 µM (inactive) | > 100 µM (inactive) | 43.1 µM (inactive) | > 100 µM (inactive) | > 100 µM (inactive) | 33 µM (inactive) | > 100 µM (inactive) | – | > 100 µM (inactive) | 11.2 µM (inactive) | > 100 µM (inactive) | 38.8 µM (inactive) | > 100 µM (inactive) | > 100 µM (inactive) | > 100 µM (inactive) | > 100 µM (inactive) | > 100 µM (inactive) | > 100 µM (inactive)
[N-]=[N+]=C1CNC(=O)NC1=O | > 100 µM (inactive) | > 100 µM (inactive) | > 100 µM (inactive) | > 100 µM (inactive) | > 100 µM (inactive) | > 100 µM (inactive) | > 100 µM (inactive) | > 100 µM (inactive) | > 100 µM (inactive) | 95.7 µM (inactive) | > 100 µM (inactive) | > 100 µM (inactive) | > 100 µM (inactive) | > 100 µM (inactive) | > 100 µM (inactive) | > 100 µM (inactive) | > 100 µM (inactive) | > 100 µM (inactive) | > 100 µM (inactive) | –
Cc1cn2cc(-c3cccs3)nc2s1 | > 72.1 µM (inactive) | > 100 µM (inactive) | > 95.5 µM (inactive) | > 40.4 µM (inactive) | > 100 µM (inactive) | > 41.2 µM (inactive) | > 100 µM (inactive) | > 53.5 µM (inactive) | – | > 100 µM (inactive) | > 100 µM (inactive) | > 100 µM (inactive) | > 100 µM (inactive) | > 100 µM (inactive) | > 91.8 µM (inactive) | > 100 µM (inactive) | > 73.3 µM (inactive) | 63.4 µM (inactive) | > 100 µM (inactive) | > 67.6 µM (inactive)
CCCc1cc(=O)oc2c3c(c4c(c12)OC(C)(C)CC4)O[C@H](C)[C@@H](C)[C@H]3O | 20 µM (inactive) | 20.5 µM (inactive) | 15.7 µM (inactive) | 16.1 µM (inactive) | 15.5 µM (inactive) | 10 µM (inactive) | 22.6 µM (inactive) | 16.3 µM (inactive) | 14.1 µM (inactive) | 11.5 µM (inactive) | 21.9 µM (inactive) | – | 18.5 µM (inactive) | 21.3 µM (inactive) | 17.4 µM (inactive) | 16.2 µM (inactive) | – | 16.6 µM (inactive) | – | –
CN(Cc1cnc2c(n1)C(N)=NN(N)N2)c1ccc(C(=O)NC(CCP(=O)(O)O)C(=O)O)cc1 (configuration not stated) | 2.43 µM (inactive) | > 52.8 µM (inactive) | > 31.5 µM (inactive) | – | 0.45 µM (active) | 9.51 µM (inactive) | > 100 µM (inactive) | 2.18 µM (inactive) | > 100 µM (inactive) | 3.95 µM (inactive) | > 23.8 µM (inactive) | 26.4 µM (inactive) | > 100 µM (inactive) | 6.22 µM (inactive) | 1.21 µM (inactive) | 3.08 µM (inactive) | > 100 µM (inactive) | 15.3 µM (inactive) | > 85.7 µM (inactive) | –
CC1(C)CC[C@]2(C(=O)O)[C@H](O)C[C@]3(C)C(=CC[C@@H]4[C@@]5(C)CC[C@H](OC6OC(C(=O)O)C(O)C(O)C6O)C(C)(C)[C@@H]5CC[C@]43C)[C@@H]2C1 (some centres not stated) | > 100 µM (inactive) | > 100 µM (inactive) | > 100 µM (inactive) | 96.4 µM (inactive) | > 100 µM (inactive) | > 100 µM (inactive) | 28.2 µM (inactive) | > 100 µM (inactive) | – | > 100 µM (inactive) | > 100 µM (inactive) | > 100 µM (inactive) | > 100 µM (inactive) | 26.1 µM (inactive) | 88.5 µM (inactive) | 46.1 µM (inactive) | – | 27.2 µM (inactive) | 18.3 µM (inactive) | 21.3 µM (inactive)
ClC(Cl)(Cl)C1CCOC1n1nnc2ccccc21 (configuration not stated) | 63 µM (inactive) | > 100 µM (inactive) | > 100 µM (inactive) | > 100 µM (inactive) | 92.9 µM (inactive) | 73.5 µM (inactive) | 89.7 µM (inactive) | > 100 µM (inactive) | > 100 µM (inactive) | > 100 µM (inactive) | > 100 µM (inactive) | 82.4 µM (inactive) | > 100 µM (inactive) | > 100 µM (inactive) | > 100 µM (inactive) | > 100 µM (inactive) | > 100 µM (inactive) | > 100 µM (inactive) | – | –
S=c1c2cn[nH]c2nc2scc(-c3ccc(Cl)cc3)n12 | 13 µM (inactive) | 9.59 µM (inactive) | 23.5 µM (inactive) | – | 14.2 µM (inactive) | 16.7 µM (inactive) | 8.73 µM (inactive) | 18.5 µM (inactive) | 17 µM (inactive) | 3.78 µM (inactive) | 22.2 µM (inactive) | 24.9 µM (inactive) | 20.1 µM (inactive) | 4.04 µM (inactive) | 16.6 µM (inactive) | > 10 µM (inactive) | 10.6 µM (inactive) | 15.4 µM (inactive) | 18.1 µM (inactive) | 12.1 µM (inactive)
COc1ccc(C2SC(C)C(=O)N2c2nc(-c3nc(-c4ccc(Cl)cc4)cs3)cs2)cc1 (configuration not stated) | > 100 µM (inactive) | > 100 µM (inactive) | > 100 µM (inactive) | – | > 100 µM (inactive) | > 100 µM (inactive) | > 100 µM (inactive) | > 100 µM (inactive) | > 100 µM (inactive) | > 100 µM (inactive) | > 100 µM (inactive) | > 100 µM (inactive) | > 100 µM (inactive) | > 100 µM (inactive) | > 100 µM (inactive) | > 100 µM (inactive) | > 100 µM (inactive) | > 100 µM (inactive) | > 10 µM (inactive) | > 100 µM (inactive)
CC1CC[C@@]2(OC1)OC1CC3C4CCC5C[C@@H](OC6OC(CO)C(OC7OC(CO)C(O)C(OC8OC(CO)C(O)C(OC9OC(CO)C(O)C(O)C9O)C8O)C7OC7OC(CO)C(O)C(O)C7O)C(O)C6O)[C@H](O)C[C@]5(C)C4CC[C@]3(C)C1[C@@H]2C (some centres not stated) | > 80.5 µM (inactive) | > 80.5 µM (inactive) | > 80.5 µM (inactive) | > 80.5 µM (inactive) | > 80.5 µM (inactive) | > 80.5 µM (inactive) | > 80.5 µM (inactive) | > 80.5 µM (inactive) | > 80.5 µM (inactive) | > 80.5 µM (inactive) | > 80.5 µM (inactive) | – | > 80.5 µM (inactive) | > 80.5 µM (inactive) | > 80.5 µM (inactive) | > 80.5 µM (inactive) | > 80.5 µM (inactive) | > 80.5 µM (inactive) | > 80.5 µM (inactive) | –
